Measurements: paper PMC6063804 (EJNMMI Research, 2018)
Several values for one entry are separate records, joined by “and”; a condition that tells them apart may be missing. Equal entries are not always repeated. Where two headings read alike, the source gives them in different places.

Experiments:
[1] = format: in vivo, human; conditions: for activity that could not be extracted / mean parent fraction: plasma; for mean parent fraction: all 20 scans
Experimental: All subjects received a radial artery cannula for continuous and manual arterial sampling. For each scan, an arterial input function was obtained using an on-line blood sampler (Veenstra Instruments, Joure, The Netherlands) with a withdrawal rate of 5 mL · min^−1 during the first 5 min and 2.5 mL · min^−1 from 5 to 60 min post injection (p.i.) in order to stay within blood volume sampling constraints. Continuous blood withdrawal was interrupted briefly to manually collect arterial blood samples (10 mL each) at set timepoints (5, 10, 20, 40, 60, 75, 90, 120 min p.i.). In several subjects, an arterial sample was taken immediately before PET and incubated with [^18F]PK-209 at 37 °C to compare radioactivity recovery fractions throughout the 120 min with extracted fractions of the arterial samples taken during PET. The samples were used to measure blood and plasma radioactivity concentrations, whole blood-to-plasma ratios, and plasma metabolite fractions of [^18F]PK-209. For the latter purpose, samples were analyzed using solid-phase extraction combined with HPLC using off-line radioactivity detection.
The final arterial plasma input function was derived using both continuous and discrete arterial blood data. The input function was corrected for plasma to whole blood ratio, metabolites, and time delay. For each scan, two additional plasma input functions were generated to investigate the effect of within-subject and between-subject variability in plasma data. For the within-subject averaged input function, the mean of PET1 and PET2 [^18F]PK-209 parent fractions per subject were used at each of the eight sample timepoints for both scans. For the population-averaged input function, the mean parent fractions for all five subjects in the TRT and ketamine groups (i.e., 10 scans) were taken at each timepoint. The manual arterial blood samples were also used for assessment of the plasma ketamine concentration. The area under the ketamine concentration–time curve was estimated by means of the trapezoidal rule.
The absolute percentage TRT variability of kinetic parameters between test and retest scans was calculated using the equation TRT variability = 2 · (ρretest − ρtest)/(ρtest + ρretest) · 100, where ρ is the kinetic parameter of interest. The between-subject coefficient of variation was calculated as the standard deviation divided by the sample mean · 100. […] SUV from 90 to 120 min (SUV90–120) was calculated as the mean of the last three mid-frame SUV values.

[2] = test system: ion channel of NMDA-R; parameters: method as in PMID 25451213; conditions: cited from earlier work
[3] = cited from earlier work

Structure (SMILES): CSc1ccc(Cl)c(NC(=N)N(C)c2cccc(OC[18F])c2)c1 [[^18F]PK-209, 3-(2-chloro-5-(methylthio)phenyl)-1-(3-([^18F]fluoromethoxy)phenyl)-1-methylguanidine]
- difference in mean blood-to-plasma ratios between test–retest and between baseline–ketamine scans ([1]; all eight measured timepoints): < 3%
- peak radioactivity concentration in plasma, mean SUV ([1]; arterial plasma): 17.4 ± 2.8
- plasma radioactivity as % of the peak ([1]; at 3 min): ~ 7%
- fractional recovery of radioactivity from plasma ([1]; declined over time, stabilizing): approximately 45%
- activity that could not be extracted ([1]; 5 min p.i.): 15 ± 3%
- activity that could not be extracted ([1]; 120 min p.i.): 54 ± 4%
- mean parent fraction ([1]; 5 min p.i.): 77 ± 7%
- mean parent fraction ([1]; 10 min p.i.): 57 ± 9% and 57%
- mean parent fraction ([1]; 20 min p.i.): 34 ± 5% and 34%
- mean parent fraction ([1]; 60 min p.i.): 19 ± 3%
- mean parent fraction ([1]; 120 min p.i.): 14 ± 3%
- parent fractions in baseline scans lower than the test–retest group ([1]; subjects 6 to 10, average): 16%
- selectivity for the ion channel of NMDA-R over other targets [2]: high selectivity
- LogDoct,7.4 [3]: 1.45
